Reference: patent publication US12590091B2, “1H-pyrrolo[3,2-C]pyridine and 1H-pyrrolo[2,3-C]pyridine derivatives as TLR9 inhibitors for the treatment of fibrosis” (BRISTOL-MYERS SQUIBB COMPANY, priority 2020, dated 2026)

These molecules were tested against T1, human TLR9 (Homo sapiens, UniProt Q9NR96) (assay: TLR9 inhibition reporter assay (HEK-Blue cells, SEAP reporter)). Settings: HEK-Blue cells overexpressing human TLR9, stimulated with ODN2006 5 nM, 22 hour incubation.
T1 construct: host or cells: HEK-Blue cells
T1 sequence (Q9NR96 26-1032): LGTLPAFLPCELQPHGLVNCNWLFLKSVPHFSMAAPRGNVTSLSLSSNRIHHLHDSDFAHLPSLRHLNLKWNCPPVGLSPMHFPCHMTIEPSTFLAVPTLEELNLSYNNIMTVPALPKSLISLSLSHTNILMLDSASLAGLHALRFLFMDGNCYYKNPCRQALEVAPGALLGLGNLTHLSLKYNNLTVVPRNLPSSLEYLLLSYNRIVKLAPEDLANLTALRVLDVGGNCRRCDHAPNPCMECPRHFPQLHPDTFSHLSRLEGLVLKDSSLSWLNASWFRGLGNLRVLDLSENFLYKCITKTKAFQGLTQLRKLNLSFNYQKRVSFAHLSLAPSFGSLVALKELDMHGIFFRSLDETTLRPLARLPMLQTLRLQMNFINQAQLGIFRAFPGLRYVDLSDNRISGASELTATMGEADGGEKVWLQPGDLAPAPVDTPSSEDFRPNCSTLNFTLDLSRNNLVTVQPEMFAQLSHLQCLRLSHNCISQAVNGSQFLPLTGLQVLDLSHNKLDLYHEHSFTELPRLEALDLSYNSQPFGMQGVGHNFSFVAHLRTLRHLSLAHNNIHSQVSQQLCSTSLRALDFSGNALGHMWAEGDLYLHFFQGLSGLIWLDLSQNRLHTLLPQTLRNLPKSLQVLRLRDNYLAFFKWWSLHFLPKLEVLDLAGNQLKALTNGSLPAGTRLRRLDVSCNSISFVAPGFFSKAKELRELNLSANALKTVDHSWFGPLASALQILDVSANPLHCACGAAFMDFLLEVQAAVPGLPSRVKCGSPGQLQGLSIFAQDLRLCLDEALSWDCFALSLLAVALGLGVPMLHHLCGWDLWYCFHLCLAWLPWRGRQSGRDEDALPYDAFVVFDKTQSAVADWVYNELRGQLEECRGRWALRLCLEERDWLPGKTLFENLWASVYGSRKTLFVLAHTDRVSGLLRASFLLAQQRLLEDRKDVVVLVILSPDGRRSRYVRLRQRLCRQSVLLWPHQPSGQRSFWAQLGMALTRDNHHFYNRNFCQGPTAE
Assay type: cell-based
Method: TLR7/8/9 Inhibition Reporter Assays
HEK-Blue™-cells (Invivogen) overexpressing human TLR7, TLR8 or TLR9 receptors were used for screening inhibitors of these receptors using an inducible SEAP (secreted embryonic alkaline phosphatase) reporter gene under the control of the IFN-β minimal promoter fused to five NF-κB and AP-1-binding sites. Briefly, cells are seeded into Greiner 384 well plates (15000 cells per well for TLR7, 20,000 for TLR8 and 25,000 for TLR9) and then treated with test compounds in DMSO to yield a final dose response concentration range of 0.05 nM-50 μM. […] After a 22 hour incubation at 37° C., 5% CO2, SEAP levels are determined with the addition of HEK-Blue™ Detection reagent (Invivogen), a cell culture medium that allows for detection of SEAP, according to manufacturer's specifications. The percent inhibition is determined as the % reduction in the HEK-Blue signal present in wells treated with agonist plus DMSO alone compared to wells treated with a known inhibitor.
`Cc1nc(-c2ccc(N3CCN(C4CCOCC4)CC3)c(F)c2F)cc2c1cc(-c1ccc(S(C)(=O)=O)cc1)n2C` [Example 83, 6-(2,3-difluoro-4-(4-(tetrahydro-2H-pyran-4-yl)piperazin-1-yl)phenyl)-1,4-dimethyl-2-(4-(methylsulfonyl)phenyl)-1H-pyrrolo[3,2-c]pyridine] gave an IC50 of 2.3 µM. `Cc1nc(-c2ccc(N3CCN(C4CCOCC4)CC3)c(F)c2)cc2c1cc(-c1ccc(S(C)(=O)=O)cc1)n2C` [Example 71, 6-(3-fluoro-4-(4-(tetrahydro-2H-pyran-4-yl)piperazin-1-yl)phenyl)-1,4-dimethyl-2-(4-(methylsulfonyl)phenyl)-1H-pyrrolo[3,2-c]pyridine] was tested, and the IC50 was 0.003 µM. Molecule `COc1ccc(-c2cc3cnc(-c4ccc(N5CCN(C(C)=O)CC5)cc4)cc3n2C)cc1OC` [Example 30, 1-(4-(4-(2-(3,4-dimethoxyphenyl)-1-methyl-1H-pyrrolo[3,2-c]pyridin-6-yl)phenyl)piperazin-1-yl) ethan-1-one] has an IC50 of 0.579 µM. With `Cc1nc(-c2ccc(N3CCN(CCc4ccc(Br)cc4)CC3)cc2)cc2c1cc(-c1ccc(S(C)(=O)=O)cc1)n2C` [Example 111, 6-(4-(4-(4-bromophenethyl)piperazin-1-yl)phenyl)-1,4-dimethyl-2-(4-(methylsulfonyl)phenyl)-1H-pyrrolo[3,2-c]pyridine] the IC50 was 0.113 µM. For `Cc1nc(-c2ccc(N3CC4CCC(C3)N4C(C)C)cc2)cc2c1cc(-c1ccc(S(C)(=O)=O)cc1)n2C` [Example 64, 6-(4-(8-isopropyl-3,8-diazabicyclo[3.2.1]octan-3-yl)phenyl)-1,4-dimethyl-2-(4-(methylsulfonyl)phenyl)-1H-pyrrolo[3,2-c]pyridine], the IC50 was 0.0064 µM. For `Cc1nc(-c2ccc(N3CCN(Cc4ccc(I)cc4)CC3)cc2)cc2c1cc(-c1ccc(S(C)(=O)=O)cc1)n2C` [Example 112, 6-(4-(4-(4-iodobenzyl)piperazin-1-yl)phenyl)-1,4-dimethyl-2-(4-(methylsulfonyl)phenyl)-1H-pyrrolo[3,2-c]pyridine], the IC50 was 0.087 µM. With `Cc1nc(-c2ccc(N3CCN(C4CCOC4)CC3)cc2)cc2c1cc(-c1ccc(S(=O)(=O)N(C)C)cc1)n2C` (stereo not drawn) [Example 52, 4-(1,4-dimethyl-6-(4-(4-(tetrahydrofuran-3-yl)piperazin-1-yl)phenyl)-1H-pyrrolo[3,2-c]pyridin-2-yl)-N,N-dimethylbenzenesulfonamide] the IC50 was 0.202 µM. `Cc1nc(-c2ccc(N3CCN(C(C)C)CC3)cc2)cc2c1cc(-c1ccc(S(=O)(=O)C3CC3)cc1)n2C` [Example 42, 2-(4-(Cyclopropylsulfonyl)phenyl)-6-(4-(4-isopropylpiperazin-1-yl)phenyl)-1,4-dimethyl-1H-pyrrolo[3,2-c]pyridine] gave an IC50 of 0.346 µM. `Cc1nc(-c2ccc(N3CCN(CC(C)C)CC3)cc2)cc2c1cc(-c1cccc(S(C)(=O)=O)c1)n2C` [Example 40, 6-(4-(4-isobutylpiperazin-1-yl)phenyl)-1,4-dimethyl-2-(3-(methylsulfonyl)phenyl)-1H-pyrrolo[3,2-c]pyridine] showed an IC50 of 0.098 µM. `Cc1nc(-c2ccc(N3CCN(Cc4ccc(Br)cc4)CC3)cc2)cc2c1cc(-c1ccc(S(C)(=O)=O)cc1)n2C` [Example 113, 6-(4-(4-(4-bromobenzyl)piperazin-1-yl)phenyl)-1,4-dimethyl-2-(4-(methylsulfonyl)phenyl)-1H-pyrrolo[3,2-c]pyridine] gave an IC50 of 0.153 µM. Work on `Cc1nc(-c2ccc(N3CCN(CCc4ccc(I)cc4)CC3)cc2)cc2c1cc(-c1ccc(S(C)(=O)=O)cc1)n2C` [Example 110, 6-(4-(4-(4-iodophenethyl)piperazin-1-yl)phenyl)-1,4-dimethyl-2-(4-(methylsulfonyl)phenyl)-1H-pyrrolo[3,2-c]pyridine] yielded an IC50 of 0.058 µM. `Cc1nc(-c2ccc(N3CCS(=O)(=O)CC3)cc2)cc2c1cc(-c1ccc(S(C)(=O)=O)cc1)n2C` [Example 85, 4-(4-(1,4-dimethyl-2-(4-(methylsulfonyl)phenyl)-1H-pyrrolo[3,2-c]pyridin-6-yl)phenyl)thiomorpholine 1,1-dioxide] gave an IC50 of 2.4 µM. With `COCCN1CCN(c2ccc(-c3cc4c(cc(-c5ccc(S(=O)(=O)N(C)C)cc5)n4C)c(C)n3)cc2)CC1` [Example 51, 4-(6-(4-(4-(2-methoxyethyl)piperazin-1-yl)phenyl)-1,4-dimethyl-1H-pyrrolo[3,2-c]pyridin-2-yl)-N,N-dimethylbenzenesulfonamide] the IC50 was 0.044 µM. `Cc1nc(-c2ccc(N3CCN4CCCC4C3)cc2)cc2c1cc(-c1ccc(S(C)(=O)=O)cc1)n2C` (stereo not drawn) [Example 63, 6-(4-(hexahydropyrrolo[1,2-a]pyrazin-2(1H)-yl)phenyl)-1,4-dimethyl-2-(4-(methylsulfonyl)phenyl)-1H-pyrrolo[3,2-c]pyridine] showed an IC50 of 0.146 µM. `Cc1nc(-c2ccc(N3CCOCC3)cc2)cc2c1cc(-c1ccc(S(C)(=O)=O)cc1)n2C` [Example 86, 4-(4-(1,4-dimethyl-2-(4-(methylsulfonyl)phenyl)-1H-pyrrolo[3,2-c]pyridin-6-yl)phenyl)morpholine] was tested, and the IC50 was 1.07 µM. Molecule `Cc1nc(-c2cccc(N3CCN(C4CC4)CC3)c2)cc2c1cc(-c1ccc(S(C)(=O)=O)cc1)n2C` [Example 68, 6-(3-(4-cyclopropylpiperazin-1-yl)phenyl)-1,4-dimethyl-2-(4-(methylsulfonyl)phenyl)-1H-pyrrolo[3,2-c]pyridine] has an IC50 of 0.299 µM. Work on `Cc1nc(-c2ccc(N3CCN4CCCC4C3)c(F)c2)cc2c1cc(-c1ccc(S(C)(=O)=O)cc1)n2C` (stereo not drawn) [Example 65, 6-(3-fluoro-4-(hexahydropyrrolo[1,2-a]pyrazin-2(1H)-yl)phenyl)-1,4-dimethyl-2-(4-(methylsulfonyl)phenyl)-1H-pyrrolo[3,2-c]pyridine] yielded an IC50 of 0.136 µM. For `Cc1nc(-c2ccc(N3CCN(C(C)C)CC3)cc2)cc2c1cc(-c1cccc(S(C)(=O)=O)c1)n2C` [Example 39, 6-(4-(4-isopropylpiperazin-1-yl)phenyl)-1,4-dimethyl-2-(3-(methylsulfonyl)phenyl)-1H-pyrrolo[3,2-c]pyridine], the IC50 was 0.672 µM. `CC(C)N1CCN(Cc2ccc(-c3cc4c(cc(-c5ccc(S(C)(=O)=O)cc5)n4C)c(N4CCOCC4)n3)cc2)CC1` [Example 127, 4-(6-(4-((4-isopropylpiperazin-1-yl)methyl)phenyl)-1-methyl-2-(4-(methylsulfonyl)phenyl)-1H-pyrrolo[3,2-c]pyridin-4-yl)morpholine] showed an IC50 of 0.422 µM. `Cc1nc(-c2cccc(N3CCN(C(C)C)CC3)c2)cc2c1cc(-c1ccc(S(C)(=O)=O)cc1)n2C` [Example 67, 6-(3-(4-isopropylpiperazin-1-yl)phenyl)-1,4-dimethyl-2-(4-(methylsulfonyl)phenyl)-1H-pyrrolo[3,2-c]pyridine] gave an IC50 of 0.025 µM. In the case of `Cc1nc(-c2cc(F)c(N3CCN(C4CCOCC4)CC3)cc2F)cc2c1cc(-c1ccc(S(C)(=O)=O)cc1)n2C` [Example 81, 6-(2,5-difluoro-4-(4-(tetrahydro-2H-pyran-4-yl)piperazin-1-yl)phenyl)-1,4-dimethyl-2-(4-(methylsulfonyl)phenyl)-1H-pyrrolo[3,2-c]pyridine], the IC50 is reported as 0.67 µM. Molecule `Cc1nc(-c2cc(F)c(N3CCN(CC(C)C)CC3)c(F)c2)cc2c1cc(-c1ccc(S(C)(=O)=O)cc1)n2C` [Example 84, 6-(3,5-difluoro-4-(4-isobutylpiperazin-1-yl)phenyl)-1,4-dimethyl-2-(4-(methylsulfonyl)phenyl)-1H-pyrrolo[3,2-c]pyridine] has an IC50 of 0.626 µM. `Cc1nc(-c2ccc(N3CC4CCC(C3)N4CC(C)C)cc2)cc2c1cc(-c1ccc(S(C)(=O)=O)cc1)n2C` [Example 73, 6-(4-(8-isobutyl-3,8-diazabicyclo[3.2.1]octan-3-yl)phenyl)-1,4-dimethyl-2-(4-(methylsulfonyl)phenyl)-1H-pyrrolo[3,2-c]pyridine] was tested, and the IC50 was 0.359 µM. For `COc1nc(-c2ccc(N3CCN(C(C)C)CC3)cc2)cc2c1cc(-c1ccc(S(C)(=O)=O)cc1)n2C` [Example 119, 6-[4-(4-isopropylpiperazin-1-yl)phenyl]-4-methoxy-1-methyl-2-(4-methylsulfonylphenyl) pyrrolo[3,2-c]pyridine], the IC50 was 0.543 µM.
